The values that follow come from patent US20110201105A1, “LACTATION-ASSOCIATED POLYPEPTIDES” (Dairy Australia Limited, priority 2007, published 2011).

The subject of assay [1] is HSC-2 oral epithelial cells. In words: Cell viability assay to assess anti- and pro-apoptotic effects (vinblastine, Alamar Blue). Format: cell-based. The conditions noted are these: HSC-2 cells. The protocol:
Plasmids containing Tammar wallaby LAMs were directionally cloned into the expression vector pCMV Sport 6.0, and then transfected into the human kidney cell line HK293. A total of 1 μg of LAM-containing plasmid DNA and 10 ng of pEGFP-C1 plasmid was introduced into 70% confluent HK293 cells in 2 cm^2 wells containing 500 ul of opti-MEM-1 media. Transfection success was assessed by observing green fluorescence of cells by fluorescent microscopy. After 48 hours conditioned media containing the secreted polypeptide was collected and frozen at −20° C. The media containing the secreted polypeptides was then used directly in a variety of bioactivity assays. For the assays described below, samples of secreted polypeptides were aliquoted into individual wells of 96 or 384 well plates and stored, prior to assaying, either frozen or lyophilized.
A negative control created by transfection with an insertless vector was used in all assays. For the assays described in Examples 4A, 4B, 4C and 4D results for samples were in the form of relative fluorescence units (RFU) as described herein. […] In some cases, RFU less than two standard deviations from the mean were considered significant if the LAM sample in question produced a positive result in another assay.
Vinblastine is a commonly used cytotoxic agent used in chemotherapy. It induces apoptosis in a wide variety of cell types. Caspase activation and DNA fragmentation are hallmarks of the apoptotic process.
Aliquots of the secreted polypeptide samples in 96 well plates were pipetted onto HSC-2 oral epithelial cells and the cells left for 24 hours. After this time, the cells were treated with vinblastine to induce apoptosis. After a further 48 hours, the cells were analyzed for survival using a vital dye, namely Alamar Blue (resazurin) fluorescent dye (TGR BioSciences Pty Ltd, Adelaide, Australia). This dye method is a TGR proprietary assay technology and as such would be known by a person skilled in the art. Internal controls for induction of cell death via apoptosis as well as assay performance were also included on each plate. Cell survival measurements with this technique reflected the degree of apoptosis.
Background: Resazurin is reduced to fluorescent resorufin, in cell work by metabolically active cells.

Another assay concerns MDA-MB-231 cells. In words: MDA-MD-231 Matrigel outgrowth assay. Format: cell-based. The conditions noted are these: MDA-MB-231 cells on Matrigel, after 5 days, compared to control (OPTIMEM). On the procedure:
FIG. 14: Matrigel outgrowth assay. Monolayers of cells (MDA-MD-MB231) were grown to 80% confluence and collected during log phase. 5×10^3 cells were added per well (96 well format) on top of preset Matrigel (50 ul). 50 ul of bioactive supematant was added per well. Colony outgrowth was monitored over the course of the experiment and photographed after 2 (FIG. 14A) and 5 (FIG. 14B) days.
Monolayers of cells (MDA-MD-MB231) were grown in DMEM+10% FCS to 80% confluence and collected during log phase. Cells were removed from plastic using versene/trypsin (2 min/370C) and resuspended in 10 ml media. Cell were washed thrice with PBS and centrifugation. 5×10^3 cells were added per well (96 well format) on top of preset Matrigel (50 ul). 50 ul of bioactive supernatant was added per well. Colony outgrowth was monitored over the course of the experiment and photographed after 2 and 5 days.

For “LAM 13: PLA2G1B; tammar wallaby polypeptide SEQ ID NO 43, bovine polypeptide SEQ ID NO 103”, the “RFU (anti-apoptotic activity)” value in assay [1] (vinblastine, Alamar Blue, Mean RFU 679787, SD RFU 39919, negative control 696444 RFU) came to 779746 RFU. Moreover, the “anti- or pro-apoptotic activity (RFU versus mean)” value in assay [1] (text summary of Tables 8-11) is “anti-apoptotic activity”. For the same substance, the proliferation of cells entry in the assay with MDA-MB-231 cells is “increased proliferation of cells”.
